Assay [1] can be described thus: Reducing power activity (iron (III) to iron (II) reduction). Particulars: absorbance at 700 nm; mean ± SD of triplicate. The procedure:
• ○ Reducing Power Activity (Iron (III) to iron (II) reduction) Reducing power was determined according to a previously described procedure. The absorbance was measured spectrophotometrically at 700 nm and calculation was carried out using the following formula:Reducing power (%) = [(AA − AB)/AA] × 100(3) where AA = sample absorbance; AB = control absorbance.

Assay [2] can be described thus: DPPH radical scavenging activity. The conditions noted are these: absorbance at 517 nm after 10 min; mean ± SD of triplicate.
Description: The scavenging activity on the DPPH radical of samples was determined by measuring the decrease in the DPPH maximum absorbency at 517 nm after 10 min [64] and was calculated as follows:radical scavenging activity (%) = [(AB − AA)/AB] × 100(2) where: AB = control absorbance and AA = sample absorbance.
Assay [3] deals with T1, α-amylase from hog pancreas (EC 3.2.1.1) (Sus scrofa, UniProt P00690).
T1 construct: from tissue; host or cells: hog pancreas
T1 sequence (P00690 16-511): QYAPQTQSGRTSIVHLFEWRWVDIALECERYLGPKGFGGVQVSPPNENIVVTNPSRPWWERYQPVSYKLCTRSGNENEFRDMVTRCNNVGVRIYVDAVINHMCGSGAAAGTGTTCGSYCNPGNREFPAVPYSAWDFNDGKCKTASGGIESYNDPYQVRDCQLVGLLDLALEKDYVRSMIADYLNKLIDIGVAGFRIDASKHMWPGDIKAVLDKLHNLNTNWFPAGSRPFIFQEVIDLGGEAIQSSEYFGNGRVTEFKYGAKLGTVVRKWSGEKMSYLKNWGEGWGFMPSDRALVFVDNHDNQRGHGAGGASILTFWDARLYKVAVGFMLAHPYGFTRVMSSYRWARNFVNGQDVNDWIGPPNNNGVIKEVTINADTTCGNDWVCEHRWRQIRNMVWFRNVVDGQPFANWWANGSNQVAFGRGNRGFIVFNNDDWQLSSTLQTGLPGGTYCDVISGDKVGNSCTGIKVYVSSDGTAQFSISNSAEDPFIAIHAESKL
Description: α-Amylase inhibition assay. The class given is biochemical. Particulars: hog pancreas enzyme, starch substrate, 37 °C, DNS, pH 6.9; mean ± SD of triplicate. How it is done:
The α-amylase inhibition assay was performed according to the Ranilla method, which was slightly modified. Thus, 100 μL of extract was mixed with 250 μL of α-amylase from hog pancreas (EC 3.2.1.1) (0.5 mg/mL in 0.02 M sodium phosphate buffer, pH 6.9 with 0.006 M NaCl) and was incubated at 37 °C for 20 min; then, 250 μL of starch solution (1% in sodium phosphate buffer) was added, and the mixture was incubated at 37 °C for 30 min; then, 500 μL of dinitrosalicylic acid (DNS) was added and the mixture was boiled for 5 min. Finally, 5 mL of distilled water was added to the reaction mixture. […] The calculation of the results was carried out using the following formula:(4) % Amylase inhibition=ΔAcontrol−ΔAsample/ΔAcontrol × 100
(§1) The IC50 values were calculated via the linear regression analysis. Significant statistical differences were considered at p < 0.05.

The target of assay [4] is T2, lipoxygenase (EC 1.13.11.12) (Glycine max, UniProt P08170).
T2 sequence (P08170 1-839): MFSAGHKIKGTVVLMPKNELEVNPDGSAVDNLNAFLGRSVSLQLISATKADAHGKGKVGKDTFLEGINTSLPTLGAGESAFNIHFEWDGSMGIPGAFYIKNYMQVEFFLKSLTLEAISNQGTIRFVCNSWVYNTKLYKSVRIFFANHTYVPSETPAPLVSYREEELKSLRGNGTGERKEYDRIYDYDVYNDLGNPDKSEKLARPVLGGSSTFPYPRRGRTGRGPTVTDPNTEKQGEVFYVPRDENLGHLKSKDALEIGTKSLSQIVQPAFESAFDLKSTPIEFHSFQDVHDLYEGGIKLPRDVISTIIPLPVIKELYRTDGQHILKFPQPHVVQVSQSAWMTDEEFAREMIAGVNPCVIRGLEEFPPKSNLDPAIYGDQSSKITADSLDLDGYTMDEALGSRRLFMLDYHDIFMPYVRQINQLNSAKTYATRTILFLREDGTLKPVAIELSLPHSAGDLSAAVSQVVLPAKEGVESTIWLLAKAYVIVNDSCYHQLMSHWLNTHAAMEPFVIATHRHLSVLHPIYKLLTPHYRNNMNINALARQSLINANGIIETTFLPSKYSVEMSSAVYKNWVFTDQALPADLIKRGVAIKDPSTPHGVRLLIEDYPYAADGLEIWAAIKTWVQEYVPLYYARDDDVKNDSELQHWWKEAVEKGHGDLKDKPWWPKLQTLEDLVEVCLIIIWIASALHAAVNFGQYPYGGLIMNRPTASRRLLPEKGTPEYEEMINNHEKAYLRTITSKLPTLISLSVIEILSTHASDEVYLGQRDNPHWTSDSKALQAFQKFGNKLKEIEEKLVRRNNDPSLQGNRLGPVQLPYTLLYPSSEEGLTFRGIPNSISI
Description: Lipoxygenase inhibition assay. The conditions noted are these: 234 nm, mean ± SD of triplicate. The class given is biochemical. How it is done: as §1

In assay [5] the target is α-glucosidase from Saccharomyces cerevisiae (EC 3.2.1.20) (Saccharomyces cerevisiae, UniProt P53341). Description: α-Glucosidase inhibition assay. The class given is biochemical. The procedure:
as §1

Where [6] appears, read: linoleic acid substrate, read-out: Inhibition of LOX IC50 (converted).

Read-outs that look alike come from different tables or passages of the source.

α-glucosidase from Saccharomyces cerevisiae (EC 3.2.1.20), sequence (P53341 whole entry): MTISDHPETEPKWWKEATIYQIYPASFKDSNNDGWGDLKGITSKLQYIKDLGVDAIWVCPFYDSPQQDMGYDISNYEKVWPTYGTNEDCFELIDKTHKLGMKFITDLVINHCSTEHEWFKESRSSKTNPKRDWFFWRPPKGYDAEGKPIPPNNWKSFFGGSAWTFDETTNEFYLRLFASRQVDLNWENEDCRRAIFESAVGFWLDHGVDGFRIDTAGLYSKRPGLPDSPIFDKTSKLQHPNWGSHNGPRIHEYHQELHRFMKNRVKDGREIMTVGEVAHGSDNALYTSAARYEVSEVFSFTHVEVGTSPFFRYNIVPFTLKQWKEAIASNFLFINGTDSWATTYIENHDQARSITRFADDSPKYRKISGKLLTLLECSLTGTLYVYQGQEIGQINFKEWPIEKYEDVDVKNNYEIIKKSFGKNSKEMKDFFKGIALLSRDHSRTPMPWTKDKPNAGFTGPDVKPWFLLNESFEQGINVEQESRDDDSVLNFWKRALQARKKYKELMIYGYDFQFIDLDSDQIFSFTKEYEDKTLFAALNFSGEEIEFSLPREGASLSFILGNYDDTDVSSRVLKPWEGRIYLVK

As to `O=C1O[C@H]([C@@H](O)CO)C(O)=C1O` [Ascorbic acid], the “Reducing Power %” value in assay [1] is 34.5 ± 1.3%. Moreover, the “% DPPH Inhibition” value in assay [2] was found to be 96.9 ± 3.6%.
As to `O=C(/C=C/c1ccc(O)c(O)c1)O[C@@H]1C[C@](O)(C(=O)O)C[C@@H](O)[C@H]1O` [Chlorogenic acid], the 50% inhibitory concentration (IC50) in assay [3] is 5.36 µM; in assay [4] (setting [6]), 73.7 µM.
Consider `O=C(/C=C/c1ccc(O)c(O)c1)O[C@H](Cc1ccc(O)c(O)c1)C(=O)O` [Rosmarinic acid], for which the IC50 was 2.5 µM in assay [3]; 0.5 µM in assay [5]; 84.1 µM in assay [4] (Inhibition of LOX IC50, linoleic acid substrate).
Turning to `C[C@@H]1O[C@@H](OC[C@H]2O[C@@H](Oc3c(-c4ccc(O)c(O)c4)oc4cc(O)cc(O)c4c3=O)[C@H](O)[C@@H](O)[C@@H]2O)[C@H](O)[C@H](O)[C@H]1O` [Rutin], in assay [4] (setting [6]), the IC50 was 36.6 µM.

The IC50 is the concentration needed to halve the response being measured.

For the origin of these results see publication PMC10609499, “In Vitro Assessment of the Antidiabetic and Anti-Inflammatory Potential of Artemisia absinthium, Artemisia vulgaris and Trigonella foenum-graecum Extracts Processed Using Membrane Technologies” (Molecules, 2023).
